The values that follow come from ChEMBL document CHEMBL1201862, “PubChem BioAssay data set” (2004).

Among the test systems are 786-0; PC-3; UO-31; NCI-H226; SN12C; KM12; DU-145; HCT-116; LOX IMVI; MDA-MB-231; A549; NCI-H460; OVCAR-8; MDA-N; M14; SK-MEL-28; SNB-75; SNB-19; CCRF-CEM.
Assay in all cases: NCI anticancer screen, dose series, 48 h

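Assay format: 96-well plates, 48-hour exposure. GI50 marks 50% less growth.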 Active and inactive are the calls of the source. Cut-off read from the data, not from the text of the source: active = GI50 up to about 1.1 µM and inactive = higher. Some results are limits rather than exact numbers.

As to `c1ccc(-c2cc(-c3cc(-c4ccccn4)[nH]n3)n[nH]2)nc1`, the GI50 is 41.9 µM (inactive) in the test on 786-0; > 100 µM (inactive) with PC-3; 22.6 µM (inactive) in the test with UO-31; > 100 µM (inactive) in the test on NCI-H226; 27.6 µM (inactive) in the test on SN12C; > 100 µM (inactive) in the test with KM12. Besides, the GI50 in the test with DU-145 is 95.7 µM (inactive); in the test on HCT-116, 27.7 µM (inactive); in the test on LOX IMVI it was 94.4 µM (inactive); in the test with MDA-MB-231 it was > 100 µM (inactive); in the test on A549, 75.2 µM (inactive); with NCI-H460, 35.6 µM (inactive). For the same compound, the GI50 was > 100 µM (inactive) in the test on OVCAR-8; 77.3 µM (inactive) with MDA-N; 30.8 µM (inactive) with M14; > 100 µM (inactive) in the test on SK-MEL-28; 69.8 µM (inactive) in the test with SNB-75; > 100 µM (inactive) in the test on SNB-19.

On to `c1ccc(-c2c(-c3cccs3)[nH]c(-c3cccs3)c2-c2ccccn2)nc1`, for which the GI50 in the test with 786-0 was 22.6 µM (inactive); in the test with PC-3, 10.6 µM (inactive); in the test with UO-31, 19.2 µM (inactive); in the test on NCI-H226, 23 µM (inactive); in the test with SN12C, 21.1 µM (inactive); in the test on KM12 it was 23.1 µM (inactive). Besides, the GI50 in the test with DU-145 was 0.27 µM (active); in the test on HCT-116 it was 0.127 µM (active); in the test with LOX IMVI, 12.4 µM (inactive); in the test with MDA-MB-231, 20.3 µM (inactive); in the test on A549 it was 18.1 µM (inactive); with NCI-H460 it was 21.3 µM (inactive). The GI50 with OVCAR-8 was 26.4 µM (inactive); with MDA-N, 0.199 µM (active); in the test on M14, 20.2 µM (inactive); in the test with SNB-75 it was 17.6 µM (inactive); in the test on SNB-19 it was 33.5 µM (inactive); in the test on CCRF-CEM it was 8.24 µM (inactive).

As to `COc1ccc(OC)c2sc(N3C(=O)/C(=C/Cc4ccco4)N=C3c3ccccc3)nc12`, the GI50 in the test on 786-0 was 35.5 µM (inactive); with PC-3, 24.5 µM (inactive); with UO-31, 30.9 µM (inactive); in the test on SN12C, 33.3 µM (inactive); with KM12, 38.8 µM (inactive); in the test with DU-145 it was 32.4 µM (inactive). In addition, the GI50 in the test with HCT-116 was 27.3 µM (inactive); with LOX IMVI it was 25.1 µM (inactive); with MDA-MB-231, > 100 µM (inactive); in the test on A549, 34.7 µM (inactive); in the test with NCI-H460, 50.1 µM (inactive); with OVCAR-8, 33.5 µM (inactive). Also, the GI50 was 19.6 µM (inactive) in the test on MDA-N; 37.6 µM (inactive) in the test with M14; 79.1 µM (inactive) in the test with SK-MEL-28; 24.7 µM (inactive) in the test on SNB-75; 47.3 µM (inactive) with SNB-19; 11.7 µM (inactive) in the test on CCRF-CEM.

Consider `C/N=C1\OC2=C3C(c4ccccc4)(O/C(=N/C)N(C)C3(c3ccccc3)OC2=O)N1C` (configuration not stated), for which the GI50 was > 100 µM (inactive) in the test with 786-0; > 100 µM (inactive) with PC-3; > 10 µM (inactive) with UO-31; > 100 µM (inactive) in the test with NCI-H226; > 100 µM (inactive) with SN12C; > 100 µM (inactive) with KM12. Further, the GI50 in the test with DU-145, in the test on HCT-116, in the test with MDA-MB-231, with A549, with NCI-H460 and in the test with OVCAR-8 was > 100 µM (inactive) each time. Besides, the GI50 was > 100 µM (inactive) in the test with MDA-N; > 100 µM (inactive) in the test with M14; > 100 µM (inactive) with SK-MEL-28; 71.4 µM (inactive) in the test on SNB-75; > 100 µM (inactive) in the test with SNB-19; > 100 µM (inactive) with CCRF-CEM.

Turning to `C[C@@H](NC(=O)[C@@H]1C[C@]1(C)CO)c1cccc2ccccc12`, the GI50 in the test with 786-0, in the test on PC-3, with UO-31, in the test on NCI-H226, in the test with SN12C and in the test on KM12 was > 100 µM (inactive) each time. Also, the GI50 in the test on DU-145, in the test with HCT-116, in the test on MDA-MB-231, in the test with A549, with NCI-H460 and in the test on OVCAR-8 was > 100 µM (inactive) in each case. Besides, the GI50 in the test on MDA-N, with M14, in the test with SK-MEL-28, in the test on SNB-75, in the test with SNB-19 and in the test with CCRF-CEM was > 100 µM (inactive) each time.

`O=C1/C(=C/c2cc3c(=O)c4ccccc4sc3s2)NC(=S)N1c1ccccc1`: the GI50 is 23.7 µM (inactive) with 786-0; > 100 µM (inactive) with PC-3; > 100 µM (inactive) with UO-31; > 100 µM (inactive) in the test on NCI-H226; > 100 µM (inactive) in the test with SN12C; > 100 µM (inactive) with KM12. Besides, the GI50 in the test on DU-145 was > 100 µM (inactive); with HCT-116, 40.4 µM (inactive); in the test with LOX IMVI it was > 100 µM (inactive); with MDA-MB-231 it was 89.9 µM (inactive); with NCI-H460, > 100 µM (inactive); in the test with OVCAR-8, > 100 µM (inactive). The GI50 in the test on MDA-N was > 100 µM (inactive); with SK-MEL-28, > 100 µM (inactive); in the test on SNB-75, 5.11 µM (inactive); in the test on SNB-19, 24 µM (inactive).

On to `CCN(C)c1nc(N(C)CC)c2nc(N(C)CC)nc(N(C)CC)c2n1`, for which the GI50 in the test on 786-0, in the test on PC-3, in the test on UO-31, with SN12C, in the test on KM12 and in the test with DU-145 was > 100 µM (inactive) in each case. Besides, the GI50 with HCT-116, in the test on LOX IMVI, in the test with MDA-MB-231, in the test with A549, with NCI-H460 and in the test with OVCAR-8 was > 100 µM (inactive) in each case. For the same compound, the GI50 in the test on MDA-N, with M14, in the test with SK-MEL-28, in the test with SNB-75, with SNB-19 and with CCRF-CEM was > 100 µM (inactive) each time.

As for `CC(C)=C/C=C1/CS(=O)(=O)C=C1C`, the GI50 in the test on 786-0, in the test on PC-3, in the test on UO-31, in the test with NCI-H226, in the test with SN12C and in the test on KM12 was > 100 µM (inactive) each time. Moreover, the GI50 in the test with DU-145, with HCT-116, in the test with LOX IMVI, in the test on MDA-MB-231, in the test on A549 and with OVCAR-8 was > 100 µM (inactive) each time. Moreover, the GI50 in the test with MDA-N, with M14, with SK-MEL-28, in the test on SNB-75, in the test with SNB-19 and in the test on CCRF-CEM was > 100 µM (inactive) in each case.
